Experimental data as given in patent US9193728B2, “Fused tetracyclic pyrido [4,3-B] indole and pyrido [3,4-B] indole derivatives and methods of use” (Medivation Technologies, Inc., priority 2010, dated 2015).

Key:
[1] = target: T1, human recombinant histamine H1 receptor (Homo sapiens, UniProt P35367); experiment: Histamine H1 radioligand binding ([3H]Pyrilamine); settings: compound at 1 μM; 1.2 nM [3H]Pyrilamine; read-out: Histamine Binding (1 μM) H1, percentage inhibition
T1 construct: expressed in transfected cells; host or cells: CHO-K1
T1 sequence (P35367 whole entry): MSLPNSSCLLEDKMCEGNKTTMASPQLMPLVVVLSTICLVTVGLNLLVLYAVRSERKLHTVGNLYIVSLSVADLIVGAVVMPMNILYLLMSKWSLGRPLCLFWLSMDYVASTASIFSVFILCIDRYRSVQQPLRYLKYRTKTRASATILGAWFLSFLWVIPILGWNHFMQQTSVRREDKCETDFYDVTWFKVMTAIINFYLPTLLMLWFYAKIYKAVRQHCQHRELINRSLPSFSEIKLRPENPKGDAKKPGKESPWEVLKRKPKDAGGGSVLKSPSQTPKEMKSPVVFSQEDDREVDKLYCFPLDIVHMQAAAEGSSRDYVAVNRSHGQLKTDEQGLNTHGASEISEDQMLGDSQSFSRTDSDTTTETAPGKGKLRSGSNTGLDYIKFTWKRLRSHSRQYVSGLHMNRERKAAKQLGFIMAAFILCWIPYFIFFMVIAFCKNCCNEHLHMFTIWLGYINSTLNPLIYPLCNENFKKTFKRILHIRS
Procedure: To evaluate in radioligand binding assays the activity of compounds of the invention, human recombinant histamine H1 receptor expressed in Chinese hamster ovary (CHO) K1 cells (De Backer, M. et al, Biochem. Biophys. Res. Comm. 197(3):1601, 1993) in a modified Tris-HCl buffer (50 mM Tris-HCl, pH 7.4, 2 mM MgCl2, 100 mM NaCl, 250 mM Sucrose) was used. Compounds of the invention were incubated with 1.2 nM [^3H]Pyrilamine for 180 min. at 25° C. Non-specific binding was estimated in the presence of 1 μM Pyrilamine. Receptor proteins were filtered and washed, the filters were then counted to determine [^3H]Pyrilamine specifically bound. Compounds were screened at 1 μM or lower, using 1% DMSO as vehicle. Biochemical assay results are presented as the percent inhibition of specific binding in Table 2.

[2] = target: T2, human recombinant dopamine D2L receptor (Homo sapiens, UniProt P14416); experiment: Dopamine D2L radioligand binding ([3H]Spiperone); settings: compound at 1 μM; read-out: Dopamine (1 μM) D2L, percentage inhibition of ligand binding
T2 construct: expressed in transfected cells; host or cells: CHO
T2 sequence (P14416 whole entry): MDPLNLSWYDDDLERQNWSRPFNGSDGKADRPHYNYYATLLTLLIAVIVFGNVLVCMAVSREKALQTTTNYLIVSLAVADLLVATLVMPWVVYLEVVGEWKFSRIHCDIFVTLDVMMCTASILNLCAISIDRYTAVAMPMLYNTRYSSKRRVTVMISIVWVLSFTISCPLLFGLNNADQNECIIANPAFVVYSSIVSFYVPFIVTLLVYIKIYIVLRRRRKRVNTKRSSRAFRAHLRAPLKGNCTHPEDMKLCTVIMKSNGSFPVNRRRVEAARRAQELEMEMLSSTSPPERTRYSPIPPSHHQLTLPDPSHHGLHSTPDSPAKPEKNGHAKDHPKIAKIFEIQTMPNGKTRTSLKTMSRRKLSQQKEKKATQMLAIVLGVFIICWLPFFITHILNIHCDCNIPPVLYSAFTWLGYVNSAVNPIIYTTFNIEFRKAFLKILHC
Procedure: To evaluate in radioligand binding assays the activity of compounds of the invention, human recombinant dopamine D2L receptor expressed in Chinese hamster ovary (CHO) cells (Grandy, D. et al, Proc. Natl. Acad. Sci. USA. 86:9762, 1989; Hayes, G. et al, Mol. Endocrinol. 6:920, 1992) in a modified Tris-HCl buffer (50 mM Tris-HCl, pH 7.4, 1.4 mM Ascorbic Acid, 0.001% BSA, 150 mM NaCl) was used. Compounds of the invention were incubated with 0.16 nM [^3H]Spiperone for 120 min. at 25° C. Non-specific binding was estimated in the presence of 10 μM Haloperidol. Receptor proteins were filtered and washed, the filters were then counted to determine [^3H]Spiperone specifically bound. Compounds were screened at 1 μM or lower, using 1% DMSO as vehicle. Biochemical assay results are presented as the percent inhibition of specific binding in Table 3.

[3] = target: T3, human recombinant serotonin (5-Hydroxytryptamine) 5-HT2A receptor (Homo sapiens, UniProt P28223); experiment: Serotonin 5-HT2A radioligand binding ([3H]Ketanserin); settings: compound at 0.1 μM; read-out: Serotonin (0.1 μM) 5-HT2A, percentage inhibition of ligand binding
T3 construct: expressed in transfected cells; host or cells: CHO-K1
T3 sequence (P28223 whole entry): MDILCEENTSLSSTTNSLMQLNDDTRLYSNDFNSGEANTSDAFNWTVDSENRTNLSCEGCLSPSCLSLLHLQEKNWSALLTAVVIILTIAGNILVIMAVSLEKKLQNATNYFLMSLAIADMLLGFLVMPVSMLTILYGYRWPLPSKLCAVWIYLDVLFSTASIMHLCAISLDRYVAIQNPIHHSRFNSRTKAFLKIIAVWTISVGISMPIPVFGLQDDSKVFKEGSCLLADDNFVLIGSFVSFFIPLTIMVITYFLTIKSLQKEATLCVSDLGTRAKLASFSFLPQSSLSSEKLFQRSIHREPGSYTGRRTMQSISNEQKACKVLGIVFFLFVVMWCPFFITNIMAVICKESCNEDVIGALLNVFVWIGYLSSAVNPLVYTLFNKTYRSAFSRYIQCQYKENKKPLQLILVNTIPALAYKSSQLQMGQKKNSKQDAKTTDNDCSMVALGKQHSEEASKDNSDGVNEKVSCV
Procedure: To evaluate in radioligand binding assays the activity of compounds of the invention, human recombinant serotonin (5-Hydroxytryptamine) 5-HT2A receptor expressed in Chinese hamster ovary (CHO)-K1 cells (Bonhaus, D. et al, Br. J. Pharmacol. 115:622, 1995; Saucier, C. et al, J. Neurochem. 68:1998, 1997) in a 50 mM Tris-HCl buffer, pH 7.4, was used. Compounds of the invention were incubated with 0.5 nM [^3H]Ketanserin for 60 min. at 25° C. Non-specific binding was estimated in the presence of 1 μM Mianserin. Receptor proteins were filtered and washed, the filters were then counted to determine [^3H]Ketanserin specifically bound. Compounds were screened at 1 μM or lower, using 1% DMSO as vehicle. Biochemical assay results are presented as the percent inhibition of specific binding in Table 4.

[4] = target: T4, human recombinant serotonin (5-Hydroxytryptamine) 5-HT2C receptor (Homo sapiens, UniProt P28335); experiment: Serotonin 5-HT2C radioligand binding ([3H]Mesulergine); settings: compound at 0.1 μM; read-out: Serotonin (0.1 μM) 5-HT2C, percentage inhibition of ligand binding
T4 construct: expressed in transfected cells; host or cells: CHO-K1
T4 sequence (P28335 33-458): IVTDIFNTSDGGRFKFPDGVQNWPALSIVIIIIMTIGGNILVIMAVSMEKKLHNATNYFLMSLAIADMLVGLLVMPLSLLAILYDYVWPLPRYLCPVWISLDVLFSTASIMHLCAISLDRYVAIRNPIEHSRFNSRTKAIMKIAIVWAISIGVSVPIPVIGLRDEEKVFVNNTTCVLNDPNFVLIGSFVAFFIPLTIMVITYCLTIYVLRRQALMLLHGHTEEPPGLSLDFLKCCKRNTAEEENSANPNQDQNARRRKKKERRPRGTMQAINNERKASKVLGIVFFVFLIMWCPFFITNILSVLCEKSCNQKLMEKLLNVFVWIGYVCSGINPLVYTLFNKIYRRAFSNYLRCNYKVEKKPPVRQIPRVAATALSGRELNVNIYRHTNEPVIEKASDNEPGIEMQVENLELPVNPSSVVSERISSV
Procedure: To evaluate in radioligand binding assays the activity of compounds of the invention, human recombinant serotonin (5-Hydroxytryptamine) 5-HT2C receptor expressed in Chinese hamster ovary (CHO)-K1 cells (Wolf, W. et al, J. Neurochem. 69:1449, 1997) in a modified Tris-HCl buffer (50 mM Tris-HCl, pH 7.4, 0.1% Ascorbic Acid, 10 μM Pargyline) was used. Compounds of the invention were incubated with 1 nM [^3H]Mesulergine for 60 min. at 25° C. Non-specific binding was estimated in the presence of 1 μM Mianserin. Receptor proteins were filtered and washed, the filters were then counted to determine [^3H]Mesulergine specifically bound. Compounds were screened at 1 μM or lower, using 1% DMSO as vehicle. Biochemical assay results are presented as the percent inhibition of specific binding in Table 4.

[5] = target: T5, human recombinant serotonin (5-Hydroxytryptamine) 5-HT6 receptor (Homo sapiens, UniProt P50406); experiment: Serotonin 5-HT6 radioligand binding ([3H]LSD); settings: compound at 0.1 μM; read-out: Serotonin (0.1 μM) 5-HT6, percentage inhibition of ligand binding
T5 construct: expressed in transfected cells; host or cells: HeLa
T5 sequence (P50406 whole entry): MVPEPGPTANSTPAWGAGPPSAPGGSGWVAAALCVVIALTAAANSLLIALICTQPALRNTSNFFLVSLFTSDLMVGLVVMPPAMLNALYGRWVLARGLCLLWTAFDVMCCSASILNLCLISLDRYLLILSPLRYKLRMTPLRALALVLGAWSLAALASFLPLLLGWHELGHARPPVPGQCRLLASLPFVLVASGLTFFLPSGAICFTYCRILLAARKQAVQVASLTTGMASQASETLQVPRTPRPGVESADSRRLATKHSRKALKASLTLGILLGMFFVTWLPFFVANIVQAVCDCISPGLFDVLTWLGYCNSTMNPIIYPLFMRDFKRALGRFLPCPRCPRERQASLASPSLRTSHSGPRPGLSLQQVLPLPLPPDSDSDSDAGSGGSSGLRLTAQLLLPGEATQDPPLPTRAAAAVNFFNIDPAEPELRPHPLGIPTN
Procedure: To evaluate in radioligand binding assays the activity of compounds of the invention, human recombinant serotonin (5-Hydroxytryptamine) 5-HT6 receptor expressed in human HeLa cells (Monsma, F. Jr. et al, Mol. Pharmacol. 43:320, 1993) in a modified Tris-HCl buffer (50 mM Tris-HCl, pH 7.4, 150 mM NaCl, 2 mM Ascorbic Acid, 0.001% BSA) was used. Compounds of the invention were incubated with 1.5 nM [3H]Lysergic acid diethylamide (LSD) for 120 min. at 37° C. Non-specific binding was estimated in the presence of 5 μM Serotonin (5-HT). Receptor proteins were filtered and washed, the filters were then counted to determine [3H]LSD specifically bound. Compounds were screened at 1 μM or lower, using 1% DMSO as vehicle. Biochemical assay results are presented as the percent inhibition of specific binding in Table 4.

[6] = target: T6, human recombinant serotonin (5-Hydroxytryptamine) 5-HT7 receptor (Homo sapiens, UniProt P34969); experiment: Serotonin 5-HT7 radioligand binding ([3H]LSD); settings: compound at 0.1 μM; read-out: Serotonin (0.1 μM) 5-HT7, percentage inhibition of ligand binding
T6 construct: expressed in transfected cells; host or cells: CHO
T6 sequence (P34969 whole entry): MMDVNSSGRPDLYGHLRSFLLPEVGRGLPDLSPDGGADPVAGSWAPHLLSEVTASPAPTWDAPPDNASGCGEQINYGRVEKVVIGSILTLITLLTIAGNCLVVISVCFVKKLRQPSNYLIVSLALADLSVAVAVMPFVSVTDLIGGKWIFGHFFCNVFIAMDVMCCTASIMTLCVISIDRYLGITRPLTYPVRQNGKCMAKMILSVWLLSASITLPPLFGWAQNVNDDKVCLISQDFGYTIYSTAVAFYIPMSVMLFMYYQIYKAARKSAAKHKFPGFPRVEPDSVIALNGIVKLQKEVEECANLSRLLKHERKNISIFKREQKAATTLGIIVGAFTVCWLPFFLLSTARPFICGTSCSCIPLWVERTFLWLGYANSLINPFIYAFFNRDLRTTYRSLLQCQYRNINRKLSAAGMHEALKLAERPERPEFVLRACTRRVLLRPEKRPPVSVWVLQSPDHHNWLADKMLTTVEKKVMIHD
Procedure: To evaluate in radioligand binding assays the activity of compounds of the invention, human recombinant serotonin (5-Hydroxytryptamine) 5-HT7 receptor expressed in Chinese hamster ovary (CHO) cells (Roth, B. et al, J. Pharmacol. Exp. Ther. 268:1403, 1994; Shen, Y. et al, J. Biol. Chem. 268:18200, 1993) in a modified Tris-HCl buffer (50 mM Tris-HCl, pH 7.4, 10 mM MgCl2, 0.5 mM EDTA) was used. Compounds of invention were incubated with 5.5 nM [^3H]Lysergic acid diethylamide (LSD) for 120 min. at 25° C. Non-specific binding was estimated in the presence of 10 μM Serotonin (5-HT). Receptor proteins were filtered and washed, the filters were then counted to determine [^3H]LSD specifically bound. Compounds were screened at 1 μM or lower, using 1% DMSO as vehicle. Biochemical assay results are presented as the percent inhibition of specific binding in Table 4.

| Compound | inhibition at 1 µM [1] [%] | inhibition at 1 µM [2] [%] | inhibition at 0.1 µM [3] [%] | inhibition at 0.1 µM [4] [%] | inhibition at 0.1 µM [5] [%] | inhibition at 0.1 µM [6] [%] |
| --- | --- | --- | --- | --- | --- | --- |
| CN1CCc2c(c3cccc4c3n2CC(=O)N4)C1 [Compound 5] | 5 | 21 | -4 | 13 | 4 | 4 |
| CN1CCc2c(c3cccc4c3n2C(c2ccccc2)C(=O)N4)C1 (stereo not drawn) [Compound 6] | 46 | 41 | 12 | 7 | -6 | 30 |
| CN1CCc2c(c3cccc4c3n2CC(c2ccncc2)C4)C1 (stereo not drawn) [Compound 7] | 92 | 54 | 7 | -5 | -2 | 10 |
| CN1CCc2c(c3cccc4c3n2CCC4)C1 [Compound 8] | 49 | 15 | 30 | 48 | 9 | 14 |
| CN1CCc2c(c3cccc4c3n2CCO4)C1 [Compound 9, 8-methyl-1,2,7,8,9,10-hexahydro-[1,4]oxazino[2,3,4-hi]pyrido[4,3-b]indole] | 31 | 10 | 11 | 20 | 12 | 2 |
| CN1CCc2c(c3cccc4c3n2CC(c2ccncc2)S4)C1 (stereo not drawn) [Compound 10] | 84 | 32 | 23 | 8 | 23 | 12 |
| CN1CCc2c(c3cccc4c3n2CCS4)C1 [Compound 11, 8-methyl-1,2,7,8,9,10-hexahydropyrido[4,3-b][1,4]thiazino[2,3,4-hi]indole] | 39 | 10 | 27 | 57 | 18 | -8 |
| Cc1cc2c3c(c1)c1c(n3C(c3ccccc3)C2)CCN(C)C1 (stereo not drawn) [Compound 12] | 101 | 44 | 90 | 102 | 59 | 81 |
| Cc1cc2c3c(c1)c1c(n3CC2)CCN(CCCC(=O)c2ccc(F)cc2)C1 [Compound 13] | 64 | 91 | 98 | 93 | 31 | 62 |
| O=C(CCCN1CCc2c(c3cccc4c3n2CCC4)C1)c1ccc(F)cc1 [Compound 14] | 78 | 86 | 99 | 92 | 21 | 58 |
| Cc1cc2c3c(c1)c1c(n3CC(c3ccccc3)O2)CCN(C)C1 (stereo not drawn) [Compound 15, 5,8-dimethyl-2-phenyl-1,2,7,8,9,10-hexahydro-[1,4]oxazino[2,3,4-hi]pyrido[4,3-b]indole] | 96 | 76 | 10 | 4 | 21 | 9 |
| CN1CCc2c(c3cccc4c3n2CC(c2ccc(F)cc2)C4)C1 (stereo not drawn) [Compound 16] | 78 | 91 | 40 | 34 | 57 | 16 |
| Cc1cc2c3c(c1)c1c(n3CC(c3ccc(F)cc3)=CC2)CCN(C)C1 [Compound 156, (Z)-6-(4-fluorophenyl)-2,11-dimethyl-4,7,9,10,11,12-hexahydroazepino[3,2,1-hi]pyrido[4,3-b]indole] | 101 | 65 | 98 | 93 | 62 | 49 |
| Cc1cc2c3c(c1)c1c(n3CC(c3ccc(F)cc3)CC2)CCN(C)C1 (stereo not drawn) [Compound 157, 6-(4-fluorophenyl)-2,11-dimethyl-4,5,6,7,9,10,11,12-octahydroazepino[3,2,1-hi]pyrido[4,3-b]indole] | 95 | 83 | 90 | 96 | 91 | 80 |
| CN1CCc2c(c3cccc4c3n2CC(=O)N4Cc2ccncc2)C1 [Compound 159] | 16 | 6 | 53 | 35 | 4 | 38 |
| Cc1ccc(C2Cn3c4c(c5cccc2c53)CN(C)CC4)cn1 (stereo not drawn) [Compound 210] | – | – | 23 | – | 1 | 21 |
| Cc1cc2c(-c3ccccc3)cn3c4c(c(c1)c23)CN(C)CC4 [Compound 211] | – | – | 50 | – | 47 | 78 |
